The values that follow come from patent US20250099448A1, “HETEROCYCLIC COMPOUNDS” (Hoffmann-La Roche Inc., priority 2022, published 2025).

The target of the test is T1, MAGL protein (Homo sapiens, UniProt Q99685).
T1 sequence (Q99685 1-303): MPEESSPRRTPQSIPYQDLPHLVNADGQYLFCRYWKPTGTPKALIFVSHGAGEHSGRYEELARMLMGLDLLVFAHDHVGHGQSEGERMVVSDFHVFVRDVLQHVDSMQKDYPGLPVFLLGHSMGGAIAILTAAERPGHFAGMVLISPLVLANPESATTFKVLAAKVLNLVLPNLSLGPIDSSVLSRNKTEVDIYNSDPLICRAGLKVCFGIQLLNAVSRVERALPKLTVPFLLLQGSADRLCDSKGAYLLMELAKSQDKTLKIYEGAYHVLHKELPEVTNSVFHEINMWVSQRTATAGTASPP
The test is described as follows: 2-AG assay: MAGL inhibitory activity by hydrolysis of 2-arachidonoylglycerol to arachidonic acid, followed by mass spectrometry. It is filed as biochemical. Particulars: 8 μM 2-arachidonoylglycerol, 15 min preincubation, 30 min reaction at RT, RapidFire MS readout. A digest of the protocol: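 MAGL was preincubated 15 min at RT with compound (12.5 to […], 3-fold steps) in 50 mM TRIS, 1 mM EDTA, 0.01% Tween-20, 2.5% DMSO. The reaction ran 30 min at RT with 8 μM 2-AG. Arachidonic acid was quantified by RapidFire SPE-MS/MS against a d8-arachidonic acid internal standard.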

`CC(C)(C)n1nnc(C2(c3ccc(C4CN(C(=O)N5CC6(CC(c7nnc(C8CC8)[nH]7)C6)C5)C4)cc3)CC2)n1` [compound 365] registered an IC50 of 0.06 nM.

For the molecule `O=C(N1CC2(CC(Cc3ccc(F)cc3C(F)(F)F)C2)C1)N1CC2(CC(c3nnc(C4(O)CC4)[nH]3)C2)C1` [compound 34], it took 0.01 nM to reach half-maximal inhibition (IC50).

Turning to `O=C(N1CC(c2ccc(NC3(C(F)(F)F)CC3)nc2)C1)N1CC2(CC(c3nnc(C4CCC4)[nH]3)C2)C1` [compound 273], the IC50 was 10.7 nM.

Molecule `CS(=O)(=O)c1cc(C2CN(C(=O)N3CC4(CC(c5nnc(C6CC6)[nH]5)C4)C3)C2)ccc1C1CCC1` [compound 297] had an IC50 of 3.16 nM.

Turning to `O=C(N1CC2(CC(Cc3ncc(F)cc3F)C2)C1)N1CC2(CC(c3nnc(C4CC4)[nH]3)C2)C1` [compound 115], the IC50 stood at 0.2 nM.

For `O=C(N1CC2(CC(Cc3ccc4[nH]ncc4n3)C2)C1)N1CC2(CC(c3nc(C4CC4)n[nH]3)C2)C1` [compound 684], the IC50 is 4.33 nM.

The molecule `N#Cc1[nH]nnc1-c1ccc(C2CN(C(=O)N3CC4(CC(c5nnc(C6CC6)[nH]5)C4)C3)C2)cc1` [Example 910, 4-[4-[1-[6-(5-cyclopropyl-4H-1,2,4-triazol-3-yl)-2-azaspiro[3.3]heptane-2-carbonyl]azetidin-3-yl]phenyl]-1H-triazole-5-carbonitrile] had a half-maximal inhibitory concentration (IC50) of 4.23 nM.

As for `COc1nc(C(F)(F)F)cnc1CC1CC2(C1)CN(C(=O)N1CC3(CC(c4nc(C5CC5)n[nH]4)C3)C1)C2` [compound 943], half-maximal inhibition (IC50) required 0.09 nM.

The molecule `O=C(N1CC2(CC(Cc3n[nH]c(C4(C(F)(F)F)CC4)n3)C2)C1)N1CC2(CC(c3nnc(C4CC4)[nH]3)C2)C1` [compound 816] registered an IC50 of 1.61 nM. Compared with the last molecule, the IC50 is about 18-fold higher.

For the molecule `O=C(N1CC(OCc2cccc(S(=O)(=O)C(F)(F)F)c2)C1)N1CC2(CC(c3nnc(C4CC4)[nH]3)C2)C1` [compound 321], the concentration for half-maximal inhibition (IC50) turned out to be 10.8 nM.

As to `CS(=O)(=O)c1ccc(Cl)cc1OC1CCC2(CC1)CN(C(=O)N1CC3(CC(c4nnc(C5CC5)[nH]4)C3)C1)C2` [compound 350], inhibition was half-maximal at 3.43 nM (IC50).

In the case of `O=C(N1CC2(CC(c3nnc(C4CC4)[nH]3)C2)C1)N1CC2(CC(S(=O)(=O)c3ccc(F)cc3Cl)C2)C1` [compound 356], the IC50 was determined as 11.7 nM.

On to `O=C(N1CC2(CC(Oc3ccc(C(F)(F)F)nn3)C2)C1)N1CC2(CC(c3nnc(C4CC4)[nH]3)C2)C1` [compound 78], for which the half-maximal inhibitory concentration (IC50) worked out at 3.92 nM. This IC50 is about 3-fold lower than that of the molecule before.

In the case of `O=C(N1CC2(CC(Oc3cnc(C(F)(F)F)cn3)C2)C1)N1CC2(CC(c3nnc(C4CC4)[nH]3)C2)C1` [compound 75], half-maximal inhibition (IC50) was put at 5.55 nM. This IC50 and that of the molecule before are within 1.5-fold of each other.

In turn, `O=C(N1CC2(CC(Cc3ccc(OC(F)(F)F)nc3)C2)C1)N1CC2(CC(c3nc(C4(O)CC4)n[nH]3)C2)C1` [compound 710] registered an IC50 of 2.61 nM.

Molecule `O=C(N1CC2(CC(c3nnc(C4CCC4)[nH]3)C2)C1)N1CC2(CN(Cc3ccc(F)cc3F)C2)C1` [Example 158, [6-(5-cyclobutyl-4H-1,2,4-triazol-3 yl)-2-azaspiro[3.3]heptan-2-yl]-[6-[(2,4-difluorophenyl)methyl]-2,6-diazaspiro[3.3]heptan-2-yl]methanone] showed an IC50 of 150 nM.

The molecule `O=C(N1CCC(C23CC(c4nnc(C5(C(F)(F)F)CC5)o4)(C2)C3)CC1)N1CC2(CC(c3nc(C4(O)CC4)n[nH]3)C2)C1` [compound 706] showed an IC50 of 280 nM.

`CP(C)(=O)c1cc(F)cc(CC2CC3(C2)CN(C(=O)N2CC4(CC(c5nc(C6CC6)n[nH]5)C4)C2)C3)c1` [compound 680] came in with an IC50 of 1.71 nM.

For `O=C(N1CC(C23CC(Cc4ccc(C(F)(F)F)nc4)(C2)C3)C1)N1CC2(CC(c3nc(C4CC4)n[nH]3)C2)C1` [compound 866], half-maximal inhibition (IC50) was put at 19.1 nM.

Turning to `O=C(N1CC2(CC(Cc3ccc(C(F)(F)F)nc3)C2)C1)N1CC2(CC(c3ncn[nH]3)C2)C1` [compound 986], half-maximal inhibition (IC50) was put at 2360 nM.

In turn, `CS(=O)(=O)c1ccc(COC2CN(C(=O)N3CC4(CC(c5nnc(C6CC6)[nH]5)C4)C3)C2)c(F)c1` [compound 330] showed a half-maximal inhibitory concentration (IC50) of 59.9 nM.

As for `CC(C)c1ccc(N(C)c2ccc(C3CN(C(=O)N4CC5(CC(c6nnc(C7CC7)[nH]6)C5)C4)C3)cn2)cc1` [compound 382], inhibition was half-maximal at 21.4 nM (IC50).

For the molecule `O=C(N1CC(c2ccc(N3CC(C(F)(F)F)C3)nc2)C1)N1CC2(CC(c3nnc(C4CC4)[nH]3)C2)C1` [compound 258], the midpoint of inhibition, the IC50, lay at 0.64 nM. Against the preceding molecule, the IC50 is about 33-fold lower.

`O=C(N1CC2(CC(c3nnc(C4CC4)[nH]3)C2)C1)N1CC2(C1)CN(S(=O)(=O)NC1(C(F)(F)F)CC1)C2` [compound 215]: the half-inhibitory concentration (IC50) is 17.4 nM.

For the molecule `O=C(N1CC(c2ccc(N3CCC4(C3)CC4(F)F)nc2)C1)N1CC2(CC(c3nnc(C4CC4)[nH]3)C2)C1` (centres unmarked) [compound 289], the IC50 turned out to be 0.45 nM.

Molecule `Cc1cc(C(F)(F)F)nn1-c1ccc(C2CN(C(=O)N3CC4(CC(c5nnc(C6CC6)[nH]5)C4)C3)C2)cc1` [compound 278] gave a 50% inhibitory concentration (IC50) of 0.3 nM. Compared with the last molecule, the IC50 is about 1.5-fold lower.

Molecule `O=C(N1CC(c2cnc(C3(C(F)(F)F)CC3)nc2)C1)N1CC2(CC(c3nnc(C4CC4)[nH]3)C2)C1` [compound 235] showed a half-inhibitory concentration (IC50) of 21.9 nM. Compared with the last molecule, the IC50 is about 73-fold higher.

In the case of `O=C(N1CC2(CC(Cc3ncc(C(F)(F)F)cc3F)C2)C1)N1CC2(CC(c3ncn[nH]3)C2)C1` [compound 620], the IC50 is 187 nM.

On to `O=C(N1CC2(CC(c3cnc(C(F)(F)F)cn3)C2)C1)N1CC2(CC(c3nnc(C4CC4)[nH]3)C2)C1` [compound 67], for which the IC50 was found to be 5.86 nM.

Molecule `O=C(N1CC(c2ccc(C3(C(F)(F)F)CC3)nc2)C1)N1CC2(CC(c3nnc(C4(O)CC4)[nH]3)C2)C1` [compound 232] showed an IC50 of 43.6 nM.

For `O=C(N1CC2(CCC(Cc3ccc(C(F)(F)F)nc3)CC2)C1)N1CC2(CC(c3nnc(C4CC4)[nH]3)C2)C1` [compound 140], the IC50 was 0.31 nM.

The molecule `CS(=O)(=O)c1ccccc1C12CC(C3CN(C(=O)N4CC5(CC(c6nc(C7CC7)n[nH]6)C5)C4)C3)(C1)C2` [compound 909] registered a half-inhibitory concentration (IC50) of 0.51 nM.

`O=C(N1CC(c2ccc(C3(c4nnn[nH]4)CC3)cc2)C1)N1CC2(CC(c3nnc(C4CC4)[nH]3)C2)C1` [compound 379]: half-maximal inhibition (IC50) required 61 nM.

`O=C(N1CC(c2ccc(NC3(C(F)(F)F)CC3)nc2)C1)N1CC2(CC(c3nnc(C4CC4)[nH]3)C2)C1` [Example 1, [6-(5-cyclopropyl-4H-1,2,4-triazol-3-yl)-2-azaspiro[3.3]heptan-2-yl]-[3-[6-[[1-(trifluoromethyl)cyclopropyl]amino]-3-pyridyl]azetidin-1-yl]methanone] came in with an IC50 of 0.94 nM.

As to `O=C(N1CC2(CC(c3nnc(C4CCC4)[nH]3)C2)C1)N1CC2(C1)CN(S(=O)(=O)c1ccc(OC(F)(F)F)cc1)C2` [compound 93], inhibition was half-maximal at 143 nM (IC50). This IC50 lies about 150-fold higher than the previous one.

As for `O=C(N1CC2(CC(Cc3ncc(F)cc3F)C2)C1)N1CC2(CC(c3nnc(C4(O)CC4)[nH]3)C2)C1` [compound 116], the half-inhibitory concentration (IC50) worked out at 2.39 nM.

As for `O=C(N1CC2(CC(c3nnc(C4CC4)[nH]3)C2)C1)N1CC2(C1)CN(S(=O)(=O)c1ccc(F)cc1C(F)(F)F)C2` [compound 98], half-maximal inhibition (IC50) required 1.92 nM.

Molecule `O=C(N1CC2(CC(Cc3cc(F)cc(S(=O)(=O)C(F)(F)F)c3)C2)C1)N1CC2(CC(c3nc(C4CC4)n[nH]3)C2)C1` [compound 654] showed an IC50 of 0.04 nM.

As for `O=C(N1CC2(CC(c3nc(C4CC4)n[nH]3)C2)C1)N1CC2(CC(n3cnc(C4CC4)n3)C2)C1` [compound 746], the IC50 turned out to be 8.64 nM.

For `Cc1nc(C(F)(F)F)c(CN2CC3(C2)CN(C(=O)N2CC4(CC(c5nc(C6CC6)n[nH]5)C4)C2)C3)s1` [compound 504], the IC50 was found to be 1.04 nM.

For `O=C(N1CC(c2ccc(N3CCC(O)(C(F)(F)F)C3)nc2)C1)N1CC2(CC(c3nnc(C4CC4)[nH]3)C2)C1` (single isomer, unassigned) [compound 270], half-maximal inhibition (IC50) was put at 4.93 nM.

`Cn1cc(OC2CC3(C2)CN(C(=O)N2CC4(CC(c5nc(C6CC6)n[nH]5)C4)C2)C3)cn1` [compound 542] displayed an IC50 of 81.9 nM.

In turn, `O=C(N1CC(c2ccc(S(=O)(=O)C(F)(F)F)cc2)C1)N1CC2(CC(c3nnc(C4CC4)[nH]3)C2)C1` [compound 243] returned an IC50 of 0.57 nM.

In the case of `O=C(N1CCC(COc2ccc(C(F)(F)F)nc2)CC1)N1CC2(CC(c3nnc(C4CC4)[nH]3)C2)C1` [Example 903], the IC50 came to 125 nM. Against the preceding molecule, the IC50 is about 220-fold higher.

`O=C(N1CC2(CC(Cc3c[nH]c(=O)c(C(F)F)c3)C2)C1)N1CC2(CC(c3nc(C4CC4)n[nH]3)C2)C1` [compound 954] yielded an IC50 of 1.42 nM.

`O=C(N1CC2(CC(Cc3ccc(C(F)(F)F)nn3)C2)C1)N1CC2(CC(c3nnc(C4CC4)[nH]3)C2)C1` [compound 22]: the midpoint of inhibition, the IC50, lay at 0.8 nM.

Turning to `CS(=O)(=O)c1cc(CC2CC3(C2)CN(C(=O)N2CC4(CC(c5nnc(C6CC6)[nH]5)C4)C2)C3)ccc1C(F)(F)F` [compound 41], the IC50 amounted to 0.24 nM.

Turning to `O=C(N1CC2(CC(Cc3nc(C(F)(F)F)co3)C2)C1)N1CC2(CC(c3nnc(C4(O)CC4)[nH]3)C2)C1` [compound 62], the 50% inhibitory concentration (IC50) is 8.06 nM.

In turn, `N#Cc1cc(C(F)(F)F)ncc1OC1CCC2(C1)CN(C(=O)N1CC3(CC(c4nnc(C5CC5)[nH]4)C3)C1)C2` (racemic) [compound 154] showed an IC50 of 3.5 nM.

For the molecule `O=C(N1CC(c2ccc(NC3CCS(=O)(=O)C3)nc2)C1)N1CC2(CC(c3nnc(C4CC4)[nH]3)C2)C1` (centres unmarked) [compound 81], the 50% inhibitory concentration (IC50) was determined as 28.2 nM.
